Measured values reported in patent US7741350B1 (Cara Therapeutics, Inc., priority 2009, dated 2010).
Like-named read-outs stand apart in the source and are kept apart here.

Tests used:
[1] = target: human CB1 receptor (hCB1) (Homo sapiens, UniProt P21554); test: cAMP assay at human CB1 receptor; assay type: cell-based; settings: hCB1R; maximum measurable range 30 μM; read-out: EC50 (Potency at Human CB1 determined by cAMP Assay)
Summary of the method: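 Changes in intracellular cAMP measured by TR-FRET (665/615 nm) in forskolin-stimulated cells; cAMP read from a concurrent standard curve. Values normalised between forskolin and forskolin plus 1 μM CP55,940 wells. EC50 and intrinsic activity relative to CP55,940 from four-parameter nonlinear regression.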

[2] = target: human CB2 receptor (hCB2) (Homo sapiens, UniProt P34972); test: cAMP assay at human CB2 receptor; assay type: cell-based; settings: hCB2R, maximum measurable range 30 μM
Summary of the method: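 Values expressed as percent of the window between forskolin-stimulated wells and forskolin plus 1 μM CP55,940 wells.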

Male ICR mice = test: Inhibition of acetic acid-induced writhing in mice; assay type: in vivo, mouse; settings: dose of 10 mg/kg, subcutaneous 30 min before acetic acid
Text: 12: 525-562; Ramabadran and Bansinath (1986) Pharm. Res. 3: 263-270]. Intraperitoneal administration of dilute acetic acid solution causes a writhing behavior in mice. A writhe is defined as a contraction of the abdominal muscles accompanied by an extension of the forelimbs and elongation of the body. The number of writhes observed in the presence and absence of test compounds is counted to determine the analgesic activity of the compounds.
Male ICR mice, 20-40 grams in weight, were weighed and placed in individual observation chambers (usually a 4 L beaker) with a fine layer of rodent bedding at the bottom. To determine the activity and potency of test compounds, different doses of the compound solution or vehicle were injected subcutaneously in the back of the neck 30 minutes prior to administration of acetic acid solution. After administration of the compound or vehicle control, mice were returned to their individual observation chambers awaiting the intraperitoneal administration of acetic acid solution.
Thirty minutes later, 10 ml/kg of a 0.6% (v/v) acetic acid solution was then injected into the right lower quadrant of the abdomen. Immediately after the injection, the mouse was returned to its observation chamber and the recording of the number of writhes is begun immediately. The number of writhes was counted over a 15-min period starting from the time of acetic acid injection. Raw data were analyzed using a one-way ANOVA followed by Dunnett's post-tests.
For dose-response analysis, raw data were converted to % maximum possible effect (% MPE) using the formula: % MPE=((Wc−Wv)/(0−Wv))*100, where Wc is the number of writhes in compound-treated mice and Wv is the mean number of writhes in vehicle-treated mice. The dose which elicited 50% attenuation of hypersensitivity (ED50) can be determined using linear regression analysis. (Tallarida & Murray, 1987).

male Sprague-Dawley rats = test: Anti-hyperalgesia in the Complete Freund's Adjuvant (CFA) model of inflammatory pain; assay type: in vivo; settings: PO dose 3 mg/kg; 1 hr after dosing; thermal hyperalgesia; rat; read-out: % MPE (1 hr), paw withdrawal latency after CFA injection
Experimental: The anti-hyperalgesic effects of test compounds in the Complete Freund's Adjuvant (CFA) model of inflammatory pain were determined essentially as described in U.S. Pat. No. 7,517,874 using male Sprague-Dawley rats (Hsd: Sprague-Dawley®SD®, Harlan, Indianapolis, Ind.) weighing 200-300 grams.
Test compounds were prepared in a Cremaphor vehicle mixture of 1:1:18 CremophorEL:ethanol:water. Cremophor was obtained from Sigma Chemical (St. Louis, Mo.). The vehicle mixture or vehicle mixture plus test compound were each administered orally.
Assessment of thermal hyperalgesia: Baseline and post-treatment paw withdrawal latencies to a noxious thermal stimulus were measured using a plantar test apparatus (Ugo Basile; obtained from Stoelting, Wood Dale, Ill.). This apparatus generates an infrared heat source that is linearly increasing in intensity. To avoid tissue damage, the power to the heat source was cut off after 20 seconds.
Paw withdrawal latency is defined as the time required for the rat to flick its paw away from the thermal stimulus. Ibuprofen (100 mg/kg, p.o.) was used as the positive control. Paw withdrawal latencies (in seconds) were measured before (naïve paw latency, L1) and 24 hr following (CFA-inflamed paw latency, L2) a single intraplantar injection of 0.1 mL CFA (Sigma-Aldrich, cat F5881, Mycobacterium tuberculosis 1 mg/ml).
Test compounds were administered orally 23 hours following CFA injection; i.e., 1 hour prior to thermal assessment (compound treated CFA-inflamed paw latency, L3). The mean paw withdrawal latency and standard error of the mean (SEM) was determined for the injured paws for each treatment group.
Data were expressed as percent maximum […] effect (% MPE) defined as the percentage of restoration of latency of test compound-treated CFA inflamed paw as compared to the naïve paw latency.

Rat L5/L6 SNL model = test: Spinal nerve ligation (SNL) model of chronic neuropathic pain; assay type: in vivo; settings: two-way repeated measurement ANOVA, Bonferroni post-tests
Experimental: The SNL model (Kim and Chung, 1992, Pain 50 (3):355-63) was used to induce chronic neuropathic pain in rats. Rats were anesthetized with isoflurane, the left L5 transverse process was removed, and the L5 and L6 spinal nerves were tightly ligated with 6-0 silk suture. The wound was then closed with internal sutures and external staples. Following at least seven days post SNL, baseline, post-injury and post-treatment values for non-noxious mechanical sensitivity were evaluated using eight Semmes-Weinstein filaments (Stoelting, Wood Dale, Ill., USA) with varying stiffness (0.4, 0.7, 1.2, 2.0, 3.6, 5.5, 8.5, and 15 g) according to the up-down method (Chaplan et al., 1994, J. Neurosci. Meth., 53 (1):55-63). Animals were placed on a perforated metallic platform and allowed to acclimate to their surroundings for a minimum of thirty minutes before testing.
Rat L5/L6 SNL model (n=6/group; mean±sem). Sensitivity to non-noxious mechanical stimuli was tested before and at various time points following oral administration of compound (36). The mean and standard error of the mean (SEM) were determined for the injured paw in each treatment group. Since this stimulus is normally not considered painful, significant injury-induced increases in responsiveness in this test are interpreted as a measure of mechanical allodynia.

[3] = EC50 (Potency at Human CB2 determined by cAMP Assay)

Chain of human CB2 receptor (hCB2) (P34972 whole entry): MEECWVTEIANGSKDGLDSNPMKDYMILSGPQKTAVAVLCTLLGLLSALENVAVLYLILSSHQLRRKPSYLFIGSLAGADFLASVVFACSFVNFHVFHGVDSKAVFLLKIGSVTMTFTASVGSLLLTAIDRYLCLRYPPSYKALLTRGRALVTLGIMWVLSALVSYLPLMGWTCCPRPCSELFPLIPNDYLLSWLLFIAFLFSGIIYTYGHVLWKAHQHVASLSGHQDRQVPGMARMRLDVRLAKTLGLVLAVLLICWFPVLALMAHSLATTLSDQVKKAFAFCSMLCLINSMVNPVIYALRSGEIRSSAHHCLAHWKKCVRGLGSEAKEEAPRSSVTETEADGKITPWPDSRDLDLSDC
Chain of human CB1 receptor (hCB1) (P21554 whole entry): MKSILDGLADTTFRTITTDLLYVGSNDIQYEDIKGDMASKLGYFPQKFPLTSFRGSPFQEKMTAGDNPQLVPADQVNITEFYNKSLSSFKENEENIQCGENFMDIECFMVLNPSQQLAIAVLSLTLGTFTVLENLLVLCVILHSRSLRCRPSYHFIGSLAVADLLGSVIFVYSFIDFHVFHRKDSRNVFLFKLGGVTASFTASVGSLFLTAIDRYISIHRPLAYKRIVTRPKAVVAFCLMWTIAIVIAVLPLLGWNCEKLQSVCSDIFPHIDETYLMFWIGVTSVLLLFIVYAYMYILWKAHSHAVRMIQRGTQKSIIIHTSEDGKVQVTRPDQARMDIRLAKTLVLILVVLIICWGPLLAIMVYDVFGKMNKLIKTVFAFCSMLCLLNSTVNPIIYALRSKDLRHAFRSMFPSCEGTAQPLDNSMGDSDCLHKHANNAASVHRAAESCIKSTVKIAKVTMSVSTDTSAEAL

Compound	EC50 [1] [µM]	EC50 [2, 3] [µM]	reversal of the mechanical hyperalgesia induced by the acetic acid treatment (Male ICR mice) [%]	inhibition in vivo at 3 mg/kg (male Sprague-Dawley rats) [%]	Sensitivity to non-noxious mechanical stimuli, significance vs. vehicle-controls (Rat L5/L6 SNL model; 3 mg/kg oral)	Sensitivity to non-noxious mechanical stimuli, significance vs. vehicle-controls (Rat L5/L6 SNL model; 10 mg/kg oral)	Sensitivity to non-noxious mechanical stimuli, significance vs. vehicle-controls (Rat L5/L6 SNL model; 30 mg/kg oral)	EC50 ([2]; read-out: EC50 (Potency at Human CB2 determined by cAMP Assay)) [µM]
CNC(=O)[C@@H](NC(=O)n1nc(-c2ccc(F)c(F)c2)c2c1CCOC2)C(C)(C)C [Compound 28, (S)-3-(3,4-difluorophenyl)-N-(3,3-dimethyl-1-(methyl-amino)-1-oxobutan-2-yl)-6,7-dihydropyrano[4,3-c]pyrazole-1(4H)-carboxamide]	< 1	< 1	100					
CC(C)(C)[C@H](NC(=O)n1nc(-c2ccc(F)c(F)c2)c2c1CCOC2)C(=O)NCCO [Compound 36, (S)—N-(1-(2-hydroxyethylamino)-3,3-dimethyl-1-oxobutan-2-yl)-3-(3,4-difluorophenyl)-6,7-dihydropyrano[4,3-c]pyrazole-1(4H)-carboxamide]	< 1	< 1		44	significant to p<0.05 vs. vehicle-controls	significant to p<0.001 vs. vehicle-controls	significant to p<0.001 vs. vehicle-controls	
CNC(=O)[C@@H](NC(=O)n1nc(-c2cc(F)c(F)cc2F)c2c1CCN(C)C2)C(C)(C)C [Compound 37, (S)—N-(3,3-dimethyl-1-(methylamino)-1-oxobutan-2-yl)-5-methyl-3-(2,4,5-trifluorophenyl)-4,5,6,7-tetrahydro-1H-pyrazolo[4,3-c]pyridine-1-carboxamide]	< 1	< 1	100					
CC(C)(C)[C@H](NC(=O)n1nc(-c2cc(F)c(F)cc2F)c2c1CCOC2)C(=O)NCCO [Compound 35, (S)—N-(1-(2-hydroxyethylamino)-3,3-dimethyl-1-oxobutan-2-yl)-3-(2,4,5-trifluorophenyl)-6,7-dihydropyrano[4,3-c]pyrazole-1(4H)-carboxamide]	< 1	< 1	100					
CC(C)(C)[C@H](NC(=O)n1nc(-c2ccc(F)c(F)c2)c2c1COCC2)C(=O)NCCO [Compound 95, (S)-3-(3,4-difluorophenyl)-N-(1-(2-hydroxyethylamino)-3,3-dimethyl-1-oxobutan-2-yl)-4,5-dihydropyrano[3,4-c]pyrazole-1(7H)-carboxamide]	< 1	< 1		41				
CC(C)(C)[C@H](NC(=O)n1nc(-c2ccc(Cl)cc2F)c2c1CCOC2)C(=O)NCCO [Compound 88, (S)-3-(4-chloro-2-fluorophenyl)-N-(1-(2-hydroxyethylamino)-3,3-dimethyl-1-oxobutan-2-yl)-6,7-dihydropyrano[4,3-c]pyrazole-1(4H)-carboxamide]	< 1			47				< 1
CN1CCCc2c1c(-c1cc(F)ccc1F)nn2C(=O)N[C@H](C(=O)NCCO)C(C)(C)C [Compound 92, (S)-3-(2,5-difluorophenyl)-N-(1-(2-hydroxyethylamino)-3,3-dimethyl-1-oxobutan-2-yl)-4-methyl-4,5,6,7-tetrahydro-1H-pyrazolo[4,3-b]pyridine-1-carboxamide]	< 1	< 1		23				
